Test systems include NCI/ADR-RES ovarian; MDA-N; HOP-62 NSCLC; OVCAR-8 ovarian; T-47D breast; SF-268 CNS; MALME-3M melanoma; MDA-MB-435; U251 CNS; MDA-MB-231 breast.
Holding throughout (test): DTP human tumour cell line panel, 48 h

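48-hour exposure; five concentrations; linearly interpolated endpoints. TGI: total growth inhibition.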

What is called TGI is the concentration at which net growth stops. Take `C[n+]1cc2cc(O)c(O)cc2c2ccc3cc(O)c(O)cc3c21`: the TGI was 6.67 µM in the test with NCI/ADR-RES ovarian; over 100 µM with MDA-N; 10.8 µM in the test on HOP-62 NSCLC; 11.4 µM in the test on OVCAR-8 ovarian; over 100 µM in the test on T-47D breast; 13.5 µM in the test on SF-268 CNS. Also, the TGI is 12.9 µM with MALME-3M melanoma, over 100 µM in the test on MDA-MB-435, 9.91 µM in the test with U251 CNS and over 100 µM in the test with MDA-MB-231 breast.
On to `CCOC(=O)c1c(N2CCCC2)[nH]c(=O)c(C(c2ccc(OC)cc2)c2c(O)c(C(=O)OCC)c(N3CCCC3)[nH]c2=O)c1O`, for which the total growth inhibition concentration (TGI) with NCI/ADR-RES ovarian, in the test on MDA-N, in the test with HOP-62 NSCLC, with OVCAR-8 ovarian, in the test with T-47D breast and with SF-268 CNS was over 100 µM each time. Moreover, the TGI was over 100 µM in the test on MALME-3M melanoma, over 100 µM with MDA-MB-435, over 100 µM in the test with U251 CNS and 88.1 µM in the test on MDA-MB-231 breast.
`O=C(/C=C/c1ccc(Cl)cc1)Oc1ccc(C=C2CCC/C(=C\c3ccc(OC(=O)/C=C/c4ccc(Cl)cc4)cc3)C2=O)cc1`: the TGI in the test on NCI/ADR-RES ovarian, with MDA-N, in the test on HOP-62 NSCLC, in the test on OVCAR-8 ovarian, in the test with T-47D breast and in the test on SF-268 CNS was over 100 µM each time. For the same molecule, the concentration for total growth inhibition (TGI) with MALME-3M melanoma, in the test on MDA-MB-435, in the test with U251 CNS and in the test on MDA-MB-231 breast was over 100 µM in each case.
Regarding `O=C(/C=C/c1ccc(O)c(O)c1)OCCc1ccc2ccccc2c1`, the concentration for total growth inhibition (TGI) is 18.3 µM in the test with NCI/ADR-RES ovarian; 5.45 µM in the test with MDA-N; 26.4 µM in the test with HOP-62 NSCLC; 26.6 µM in the test with OVCAR-8 ovarian; 18.7 µM in the test on T-47D breast; 27 µM in the test on SF-268 CNS. Also, the TGI in the test with MALME-3M melanoma was determined as 23.1 µM; in the test on MDA-MB-435, 6.63 µM; in the test on U251 CNS, 23.8 µM; with MDA-MB-231 breast, 24.3 µM.
As to `CC1=CC2C3(C)C(C)(C(C)=CP3(=O)c3c(C(C)C)cc(C(C)C)cc3C(C)C)C1P2(=O)c1c(C(C)C)cc(C(C)C)cc1C(C)C` (stereo not given), the TGI with NCI/ADR-RES ovarian was 9.89 µM; in the test on MDA-N, 5.62 µM; with HOP-62 NSCLC it was 10.4 µM; in the test on OVCAR-8 ovarian, 16.6 µM; with T-47D breast, 10.9 µM; with SF-268 CNS, 12.1 µM. Also, the total growth inhibition concentration (TGI) in the test with MALME-3M melanoma turned out to be 5.79 µM; in the test on MDA-MB-435, 5.33 µM; in the test on U251 CNS, 6.59 µM; in the test with MDA-MB-231 breast it was 3.87 µM.
Take `c1ccc(C2=NC3OC2c2ccccc23)cc1` (stereo not given): the TGI in the test on NCI/ADR-RES ovarian, in the test with MDA-N, in the test on HOP-62 NSCLC, with OVCAR-8 ovarian, in the test with T-47D breast and in the test on SF-268 CNS was over 10 µM throughout. Besides, the TGI in the test with MALME-3M melanoma, in the test on MDA-MB-435, with U251 CNS and in the test on MDA-MB-231 breast was over 10 µM in each case.
Regarding `Cc1ccc2cccc(-c3cccc4ccccc34)c2n1`, the TGI with NCI/ADR-RES ovarian was over 100 µM; in the test with MDA-N, 22.7 µM; in the test on HOP-62 NSCLC, 56.9 µM; in the test with OVCAR-8 ovarian it was 57.7 µM; in the test on T-47D breast, over 100 µM; with SF-268 CNS, over 100 µM. Besides, the total growth inhibition concentration (TGI) was over 100 µM with MALME-3M melanoma, 7.58 µM in the test on MDA-MB-435, 29.9 µM with U251 CNS and 81 µM with MDA-MB-231 breast.
Regarding `Cc1c(C)n(-c2ccccc2)c2nc(S(C)=O)nc(S(C)=O)c12` (stereo not given), the concentration for total growth inhibition (TGI) was 59.2 µM in the test on NCI/ADR-RES ovarian; 13.6 µM in the test with MDA-N; 36.5 µM in the test with HOP-62 NSCLC; 12.4 µM in the test on OVCAR-8 ovarian; 8.62 µM in the test with T-47D breast; 22.8 µM in the test on SF-268 CNS. In addition, the TGI came out at 4.09 µM with MALME-3M melanoma, 9.76 µM in the test with MDA-MB-435, 21.1 µM in the test on U251 CNS and 17.3 µM with MDA-MB-231 breast.
With `O=c1c(F)cn2c(=O)n1CCCCCCCn1c(=O)c(F)cn(c1=O)CCCCCCC2`, the total growth inhibition concentration (TGI) in the test on NCI/ADR-RES ovarian is over 100 µM; in the test on MDA-N, over 100 µM; in the test on HOP-62 NSCLC, over 100 µM; in the test on OVCAR-8 ovarian it was over 100 µM; in the test with T-47D breast it was over 100 µM; with SF-268 CNS, 13.1 µM. Moreover, the TGI in the test on MALME-3M melanoma is 88.8 µM; with MDA-MB-435, over 100 µM; in the test on U251 CNS, over 100 µM; with MDA-MB-231 breast it was over 100 µM.
Take `O=c1ccc2ccc(S)cc2o1`: the TGI in the test with NCI/ADR-RES ovarian, with MDA-N, with HOP-62 NSCLC, in the test on OVCAR-8 ovarian, in the test with T-47D breast and in the test on SF-268 CNS was over 100 µM in each case. For the same molecule, the total growth inhibition concentration (TGI) in the test on MALME-3M melanoma, in the test on MDA-MB-435, with U251 CNS and with MDA-MB-231 breast was over 100 µM each time.
Regarding `CN(C)CCn1c(=O)c2ccc(NCCCN(C)CCCNc3ccc4c(=O)n(CCN(C)C)c(=O)n5c6ccc(O)cc6c(=O)c3c45)c3c(=O)c4cc(O)ccc4n(c1=O)c23`, the TGI in the test on NCI/ADR-RES ovarian was over 46.3 µM; in the test on MDA-N, 0.251 µM; with HOP-62 NSCLC it was 1.51 µM; with OVCAR-8 ovarian it was 0.347 µM; with T-47D breast, 10.2 µM; with SF-268 CNS it was 1.04 µM. The TGI with MALME-3M melanoma was found to be 0.598 µM; with MDA-MB-435, 0.18 µM; in the test with U251 CNS, 0.3 µM; with MDA-MB-231 breast, 0.177 µM.
Take `O=c1[nH]c(NCc2ccncc2)nc2nc[nH]c12`: the TGI in the test on NCI/ADR-RES ovarian, in the test on MDA-N, with HOP-62 NSCLC, in the test on OVCAR-8 ovarian, in the test on T-47D breast and with SF-268 CNS was over 100 µM each time. For the same molecule, the total growth inhibition concentration (TGI) in the test with MALME-3M melanoma, with MDA-MB-435, in the test with U251 CNS and in the test on MDA-MB-231 breast was over 100 µM in each case.

For the origin of these results see PubChem BioAssay (NCI).
